{"source": "patent US20140072567A1", "about": "“Methods Of Treating And Preventing Glucose Toxicity” (Walter and Eliza Hall Institute of Medical Research, ACN …, priority 2008, published 2014)", "key": {"[1]": {"system": "islets from wild type C57BL/6 mice", "assay": "DNA fragmentation assay (sub-diploid DNA, flow cytometry)", "assay_type": "cell-based", "details": "for DNA fragmentation: wild-type islets", "procedure": "Uniformly sized islets (excluding very large or necrotic islets) were handpicked into 3.5 cm Petri dishes containing 1.1 mL of complete CMRL. Islets were then cultured with the appropriate stimuli to cause DNA fragmentation. At the end of the culture period, non-attached cells and islets were transferred into polypropylene tubes and washed in PBS. Islets were then dispersed with trypsin (0.1 mg/mL bovine trypsin (Calbiochem) and 2 mmol/L EDTA in PBS) for 5 min at 37° C. Islets were mechanically dispersed using a pipette, washed in PBS, and allowed to recover in complete CMRL medium for 1 h at 37° C. in 5% CO2. Cells were then washed in PBS and resuspended in 250 μL of hypotonic buffer containing 50 mg/mL propidium iodide (Sigma-Aldrich), 0.1% sodium citrate, and 0.1% TritonX-100 which stains nuclear DNA. The cells were then analyzed on a FACSCalibur (Becton Dickinson, Franklin Lakes, N.J., USA) using the FL3 channel. Cells undergoing apoptosis were identified by their sub-diploid DNA content as previously described (Riccardi and Nicoletti, 2006)."}, "[2]": {"system": "islets from wild-type mice", "assay": "Cytochrome c release from mitochondria (flow cytometry)", "assay_type": "cell-based", "procedure": "FIG. 1: Wild-type islets cultured in high concentrations of glucose or ribose undergo DNA fragmentation and mitochondrial release of cytochrome C, both indicative of apoptosis, and have a reduced ability to secrete insulin. (A) 200 islets from wild-type C57BL/6 mice were either cultured in low glucose medium (5.6 mM) (unt) or cultured in high glucose media (33.3 mM) for 6 days or high ribose medium (50 mM) for 4 days and DNA fragmentation was measured. Representative flow cytometry profiles are shown i). Data represent islets from 13-17 individual mice per group ii). Statistical significance; *p<0.001 compared with unt (one-way ANOVA). (B) 100 islets from wild-type mice were cultured under conditions mentioned above for 4 and 3 days respectively and cytochrome C release was measured. Representative flow cytometry profiles are shown i). Data represent islets from 4 individual mice per group. ii) Statistical significance; *p<0.001 ** p<0.05 compared with unt (one-way ANOVA). (C) wild-type islets were cultured in high concentrations of ribose (50 mM) for 2 days and insulin release was measured after glucose stimulation. Statistical significance; *p<0.01 compared with unt (one-way ANOVA). […]"}, "[3]": {"system": "bim", "assay": "Real-time qRT-PCR of islets, bim", "assay_type": "cell-based, mice", "details": "for up-regulation of bim mRNA: islets exposed to high concentrations of glucose or ribose", "procedure": "(§1) FIG. 7: Ribose induces expression of Puma and Bax in islets. Quantitative RT-PCR of wild-type islets cultured in control medium or medium containing 50 mM ribose, 33.3 mM glucose or 5 μM thapsigargin for 24 or 48 h. Relative RNA expression levels for (A) Puma (B) Bim and (C) Bax were calculated by normalizing to the signal for β-actin in each sample and comparison to islets cultured in control medium. Mean±SEM of 3-4 independent experiments is shown. Statistical significance *p<0.05, **p<0.01 compared with control (two-tailed paired t-test). RNA was prepared using the RNeasy Kit (Qiagen). First strand cDNA was prepared from 0.1-0.2 μg RNA using the High Capacity RNA-to-cDNA Master Mix (Applied Biosystems). Real-time PCR was performed using the ABI Prism 7900 (Applied Biosystems) and the Power SYBR Green PCR Master Mix (Applied Biosystems) in 15 μl reaction volumes. Data analyses were performed with the CT method using actin as an internal control. qRT-PCR was performed using the following forward and reverse primers (a kind gift from Drs DCS Huang and M Narita) (Table 1)."}, "[4]": {"system": "iNOS", "assay": "Western blotting for iNOS expression in islets", "assay_type": "cell-based, mice", "details": "islets cultured in high glucose (33.3 mM) in the presence of IFNγ", "procedure": "(§2) FIG. 2: IL-1β or Fas are not required for glucose or ribose induced beta cell apoptosis. (A) 200 islets from wild-type, IL-1R^−/− and B6^lpr/lpr mice were cultured for 6 days in 5.6 mM low glucose medium (unt) or 33.3 mM D-glucose or for 4 days in 50 mM ribose. DNA fragmentation was measured by flow cytometry. (B) 100 wild-type islets were cultured for 7 days in 5.6 mM or 33.3 mM D-glucose with cytokines added in the last 4 days and iNOS expression, NO production and DNA fragmentation was measured. Representative Western blot for iNOS expression (β-actin used as loading control). (C) NO2 determination of culture supernatant (D) DNA fragmentation was measured by flow cytometry. (E) Wild-type islets were cultured in 50 mM ribose or cytokines for 2 days, 33.3 mM D-glucose for 4 days (solid lines) compared to islets cultured in 5.6 mM D-glucose (broken lines). Fas expression on β cells was analysed by FACS analysis. (F) Wild-type islets cultured for 7 days in 5.6 mM (−) or 33.3 mM (+) glucose with cytokines or FasL added in the last 4 days. The data represent the mean±S.E.M of three experiments. Islets were incubated for 4 days with cytokines and 33.3 mM glucose, transferred to microcentrifuge tubes and washed three times in PBS. […]"}, "[5]": {"system": "Fas", "assay": "Fas expression on islet beta cells by flow cytometry", "assay_type": "cell-based, mice", "details": "high glucose (33.3 mM, 4 days) compared to untreated controls", "procedure": "as §2, with “Islets cells” for “Islets”, “analysed” for “incubated”, “expression of Fas by flow cytometry as previously described (Thomas et al., 1999). Islets were dispersed into single cells as described above” for “4 days with cytokines”, “stained using standard procedures.” for “33.3 mM glucose, transferred to microcentrifuge tubes and washed three times in PBS.”"}, "[6]": {"system": "puma", "assay": "Real-time qRT-PCR of islets, puma", "assay_type": "cell-based, mice", "procedure": "as §1"}, "[7]": {"system": "bax", "assay": "Real-time qRT-PCR of islets, bax", "assay_type": "cell-based, mice", "procedure": "as §1"}, "[8]": {"system": "wild type islets", "assay": "Glucose-stimulated insulin secretion assay", "assay_type": "cell-based, mice", "details": "wild type islets exposed to ribose (50 mM) for two days", "procedure": "Insulin secretion assays were performed as previously described (Thomas et al., 2002). Two hundred islets were cultured in complete CMRL and ribose for 2 days, then washed three times in Krebs-Ringer bicarbonate buffer (KRB; 25 mmol/l HEPES, 115 mmol/l NaCl, 24 mmol/l NaHCO3, 5 mmol/l MgCl2, 2.5 mmol/l CaCl2, pH 7.4) with 3 mmol/l glucose and 0.1% BSA. Groups of 20 islets in quadruplicate were incubated for 30 min in 200 μl KRB containing 3 mmol/l glucose under 5% CO2/95% air with shaking at 37° C., followed by a second incubation in 200 μl KRB containing either 3 or 20 mmol/l glucose. Buffer was sampled for insulin after 30 min using a mouse insulin ELISA kit (Linco Research, Mo., USA)."}, "[9]": {"system": "bak", "assay": "Real-time qRT-PCR of islets, bak", "assay_type": "cell-based, mice", "details": "5 μM thapsigargin, data not shown", "procedure": "as §1"}}, "data": [{"compound": "O=C[C@H](O)[C@@H](O)[C@H](O)[C@H](O)CO", "note": "[D-glucose]", "values": [{"measurement": "DNA fragmentation", "setting": "[1]; 33.3 mM D-glucose, 6 days, compared to low glucose media (5.6 mM)", "value": "modest but significant increase"}, {"measurement": "release of cytochrome c from the mitochondria", "setting": "[2]; high glucose (33.3 mM), 4 days, compared to untreated islets", "value": "significant increase"}, {"measurement": "up-regulation of bim mRNA", "setting": "[3]", "value": "no up-regulation"}, {"measurement": "iNOS expression", "setting": "[4]", "value": "no iNOS expression"}, {"measurement": "Fas expression on islet cells", "setting": "[5]", "value": "slight but insignificant rise"}]}, {"compound": "O=C[C@H](O)[C@H](O)[C@H](O)CO", "note": "[ribose, D-ribose]", "values": [{"measurement": "DNA fragmentation", "setting": "[1]; 50 mM ribose, 4-day period, compared to high concentrations of glucose", "value": "significantly more DNA fragmentation"}, {"measurement": "release of cytochrome c from the mitochondria", "setting": "[2]; high ribose (50 mM), 3 days, compared to high glucose", "value": "more pronounced"}, {"measurement": "increase in expression of puma", "setting": "[6]; 50 mM ribose, 48 h", "value": 4, "unit": "fold"}, {"measurement": "increase in expression of bax", "setting": "[7]; 50 mM ribose, 48 h", "value": 4, "unit": "fold"}, {"measurement": "up-regulation of bim mRNA", "setting": "[3]", "value": "no up-regulation"}, {"measurement": "Bim expression", "setting": "[3]; ribose incubation (50 mM)", "value": "remained unchanged"}, {"measurement": "insulin secretory function after glucose stimulation", "setting": "[8]", "value": "significant loss"}]}, {"compound": "C/C=C(/C)C(=O)O[C@H]1C(C)=C2[C@H]([C@@H]1OC(=O)CCCCCCC)[C@@](C)(OC(C)=O)C[C@H](OC(=O)CCC)[C@@]1(O)[C@H]2OC(=O)[C@@]1(C)O", "note": "[thapsigargin, reference compound]", "values": [{"measurement": "increase in expression of puma", "setting": "[6]; 5 μM thapsigargin, 24 or 48 h", "value": "2-7 fold"}, {"measurement": "increase in expression of bax", "setting": "[7]; 5 μM thapsigargin, 24 or 48 h", "value": "2-7 fold"}, {"measurement": "increase in expression of bak", "setting": "[9]", "value": "2-7 fold"}, {"measurement": "increase in expression of bim", "setting": "[3]; 5 μM thapsigargin", "value": "not"}]}, {"compound": "z-Val-Ala-Aspfluoromethylketone [z-VAD.fmk, reference compound]", "values": [{"measurement": "inhibition of ribose-induced islet cell DNA fragmentation", "setting": "[1]; pan-caspase inhibitor used at 100 μmol/L", "value": "significantly inhibited"}]}]}
